From patent publication US6355799B1, “Substituted benzene compounds, process for their preparation, and herbicidal and defoliant compositions containing them” (ISK Americas Incorporated, priority 1997, dated 2002)

Assays:
Type in all cases: in vivo
[1] = test system: redroot pigweed (Amaranthus retroflexus, AMARE); assay: Pre-emerge test, greenhouse herbicide activity screening; settings: rating scale 0-100, 14 days after application
In short: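 Sandy loam pots; pre-emerge: sown 1 d pre-spray, surface-watered after, then bottom-watered. Post-emerge: sown 8–21 d before, 2–3 leaf stage, + 0.25% v/v NIS, bottom-watered. Acetone, 187 l/ha track spray, 15–1000 g ai/ha. 0–100 injury score, day 14.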

[2] = test system: upland rice (Oryza sp., var. Tebonnet, RICE); assay: Post-emerge test, crop safety; settings: rating scale 0-100 (0 no damage, 100 complete death), 14 days after application
In short: (§1)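 Visual ratings on a 0-100 scale (0 no damage, 100 all plants dead) were taken at 14 days after treatment. Rates of 15-1000 g ai/ha in acetone, 187 l/ha, were sprayed onto soil one day after planting (pre-emerge) or onto 2-3 leaf plants with 0.25% v/v surfactant (post-emerge).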

[3] = test system: field corn (Zea mays L., var. Dekalb 535, CORN); assay: Post-emerge test, crop safety; settings: rating scale 0-100 (0 no damage, 100 complete death), 14 days after application
In short: as §1

[4] = test system: sicklepod (Cassia obtusifolia, CASOB); assay: Pre-emerge test, greenhouse herbicide activity screening; settings: rating scale 0-100, 14 days after application
In short: as §1

[5] = test system: large crabgrass (Digitaria sanguinalis, DIGSA); assay: as above; settings: rating scale 0-100, 14 days after application
In short: as §1

[6] = test system: ivyleaf morningglory (Ipomoea hederacea, IPOHE); assay: as above; settings: rating scale 0-100, 14 days after application
In short: as §1

[7] = test system: johnsongrass (Sorghum halepense, SORHA); assay: as above; settings: rating scale 0-100, 14 days after application
In short: as §1

[8] = test system: velvetleaf (Abutilon theophrasti, ABUTH); assay: as above; settings: rating scale 0-100, 14 days after application
In short: as §1

[9] = test system: barnyardgrass (Echinochloa crus-galli, ECHCG); assay: as above; settings: rating scale 0-100, 14 days after application
In short: as §1

[10] = test system: green foxtail (Setaria viridis, SETVI); assay: as above; settings: rating scale 0-100, 14 days after application
In short: as §1

[11] = test system: lambsquarters (Chenopodium album, CHEAL); assay: as above; settings: rating scale 0-100, 14 days after application
In short: as §1

[12] = test system: sicklepod (Cassia obtusifolia, CASOB); assay: Post-emerge test, greenhouse herbicide activity screening; settings: rating scale 0-100 (0 no damage, 100 complete death), 14 days after application
In short: (§2)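 Applied at 15–1000 g ai/ha from acetone in 187 l/ha spray volume. Post-emergence applications included 0.25% v/v non-ionic surfactant and reached plants sown 8–21 days before. Pre-emergence applications were incorporated by surface watering. Efficacy or crop damage was rated on a 0–100 scale after 14 days.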

[13] = test system: large crabgrass (Digitaria sanguinalis, DIGSA); assay: as above; settings: rating scale 0-100 (0 no damage, 100 complete death), 14 days after application
In short: as §2

[14] = test system: ivyleaf morningglory (Ipomoea hederacea, IPOHE); assay: as above; settings: rating scale 0-100 (0 no damage, 100 complete death), 14 days after application
In short: as §2

[15] = test system: johnsongrass (Sorghum halepense, SORHA); assay: as above; settings: rating scale 0-100 (0 no damage, 100 complete death), 14 days after application
In short: as §2

[16] = test system: velvetleaf (Abutilon theophrasti, ABUTH); assay: as above; settings: rating scale 0-100 (0 no damage, 100 complete death), 14 days after application
In short: as §2

[17] = test system: redroot pigweed (Amaranthus retroflexus, AMARE); assay: as above; settings: rating scale 0-100 (0 no damage, 100 complete death), 14 days after application
In short: as §2

[18] = test system: barnyardgrass (Echinochloa crus-galli, ECHCG); assay: as above; settings: rating scale 0-100 (0 no damage, 100 complete death), 14 days after application
In short: as §2

[19] = test system: green foxtail (Setaria viridis, SETVI); assay: as above; settings: rating scale 0-100 (0 no damage, 100 complete death), 14 days after application
In short: as §2

[20] = test system: lambsquarters (Chenopodium album, CHEAL); assay: as above; settings: rating scale 0-100 (0 no damage, 100 complete death), 14 days after application
In short: as §2

[21] = test system: upland rice (Oryza sp., var. Tebonnet, RICE); assay: Pre-emerge test, crop safety; settings: rating scale 0-100, 14 days after application
In short: (§3)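 Compounds in acetone were track-sprayed at 15-1000 g ai/ha (187 l/ha) on sandy loam pots: pre-emerge one day after seeding, post-emerge at 2-3 leaf stage with 0.25% v/v non-ionic surfactant. Phytotoxicity was rated 14 days later on a 0 (no damage) to 100 (complete death) scale.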

[22] = test system: field corn (Zea mays L., var. Dekalb 535, CORN); assay: Pre-emerge test, crop safety; settings: rating scale 0-100, 14 days after application
In short: as §3

## CCCCCCOC(=O)C(C)(Cl)Cc1c(OC)c(Cl)cc(F)c1-n1c(=O)cc(C(F)(F)F)n(C)c1=O (centres unmarked) [14-38]
[1]; 63 g ai/ha
  Pre-emerge herbicidal activity, phytotoxicity rating AMARE: 99
[1]; 250 g ai/ha
  Pre-emerge herbicidal activity, phytotoxicity rating AMARE: 100
[2]; Rate 63 g ai/ha
  Post-emerge phytotoxicity rating RICE (crop damage): 0
[2]; Rate 250 g ai/ha
  Post-emerge phytotoxicity rating RICE (crop damage): 40
[3]; Rate 63 g ai/ha
  Post-emerge phytotoxicity rating CORN (crop damage): 50
[3]; Rate 250 g ai/ha
  Post-emerge phytotoxicity rating CORN (crop damage): 100
[4]; 63 g ai/ha
  Pre-emerge herbicidal activity, phytotoxicity rating CASOB: 0
[4]; 250 g ai/ha
  Pre-emerge herbicidal activity, phytotoxicity rating CASOB: 0
[5]; 63 g ai/ha
  Pre-emerge herbicidal activity, phytotoxicity rating DIGSA: 0
[5]; 250 g ai/ha
  Pre-emerge herbicidal activity, phytotoxicity rating DIGSA: 90
[6]; 63 g ai/ha
  Pre-emerge herbicidal activity, phytotoxicity rating IPOHE: 0
[6]; 250 g ai/ha
  Pre-emerge herbicidal activity, phytotoxicity rating IPOHE: 0
[7]; 63 g ai/ha
  Pre-emerge herbicidal activity, phytotoxicity rating SORHA: 0
[7]; 250 g ai/ha
  Pre-emerge herbicidal activity, phytotoxicity rating SORHA: 0
[8]; 63 g ai/ha
  Pre-emerge herbicidal activity, phytotoxicity rating ABUTH: 40
[8]; 250 g ai/ha
  Pre-emerge herbicidal activity, phytotoxicity rating ABUTH: 100
[9]; 63 g ai/ha
  Pre-emerge herbicidal activity, phytotoxicity rating ECHCG: 0
[9]; 250 g ai/ha
  Pre-emerge herbicidal activity, phytotoxicity rating ECHCG: 70
[10]; 63 g ai/ha
  Pre-emerge herbicidal activity, phytotoxicity rating SETVI: 0
[10]; 250 g ai/ha
  Pre-emerge herbicidal activity, phytotoxicity rating SETVI: 80
[11]; 63 g ai/ha
  Pre-emerge herbicidal activity, phytotoxicity rating CHEAL: 90
[11]; 250 g ai/ha
  Pre-emerge herbicidal activity, phytotoxicity rating CHEAL: 100
[12]; Rate 63 g ai/ha
  Post-emerge Herbicidal Activity, phytotoxicity rating CASOB: 0
[12]; Rate 250 g ai/ha
  Post-emerge Herbicidal Activity, phytotoxicity rating CASOB: 0
[13]; Rate 63 g ai/ha
  Post-emerge Herbicidal Activity, phytotoxicity rating DIGSA: 95
[13]; Rate 250 g ai/ha
  Post-emerge Herbicidal Activity, phytotoxicity rating DIGSA: 100
[14]; Rate 63 g ai/ha
  Post-emerge Herbicidal Activity, phytotoxicity rating IPOHE: 70
[14]; Rate 250 g ai/ha
  Post-emerge Herbicidal Activity, phytotoxicity rating IPOHE: 70
[15]; Rate 63 g ai/ha
  Post-emerge Herbicidal Activity, phytotoxicity rating SORHA: 0
[15]; Rate 250 g ai/ha
  Post-emerge Herbicidal Activity, phytotoxicity rating SORHA: 30
[16]; Rate 63 g ai/ha
  Post-emerge Herbicidal Activity, phytotoxicity rating ABUTH: 100
[16]; Rate 250 g ai/ha
  Post-emerge Herbicidal Activity, phytotoxicity rating ABUTH: 100
[17]; Rate 63 g ai/ha
  Post-emerge Herbicidal Activity, phytotoxicity rating AMARE: 100
[17]; Rate 250 g ai/ha
  Post-emerge Herbicidal Activity, phytotoxicity rating AMARE: 100
[18]; Rate 63 g ai/ha
  Post-emerge Herbicidal Activity, phytotoxicity rating ECHCG: 100
[18]; Rate 250 g ai/ha
  Post-emerge Herbicidal Activity, phytotoxicity rating ECHCG: 100
[19]; Rate 63 g ai/ha
  Post-emerge Herbicidal Activity, phytotoxicity rating SETVI: 90
[19]; Rate 250 g ai/ha
  Post-emerge Herbicidal Activity, phytotoxicity rating SETVI: 100
[20]; Rate 63 g ai/ha
  Post-emerge Herbicidal Activity, phytotoxicity rating CHEAL: 100
[20]; Rate 250 g ai/ha
  Post-emerge Herbicidal Activity, phytotoxicity rating CHEAL: 100
[21]; 63 g ai/ha
  Pre-emerge phytotoxicity rating, crop damage RICE: 0
[21]; 250 g ai/ha
  Pre-emerge phytotoxicity rating, crop damage RICE: 30
[22]; 63 g ai/ha
  Pre-emerge phytotoxicity rating, crop damage CORN: 0
[22]; 250 g ai/ha
  Pre-emerge phytotoxicity rating, crop damage CORN: 0
